{"source": "patent US9974301B2", "about": "“Fungicidal composition for controlling phytopathogenic diseases, comprising a mixture of the volatile compounds ethanol, 3-methylbutanol, isobutyl acetate, isoamyl acetate and alpha-bisabolol; and the use thereof for inhibiting the growth of the pathogenic fungus botrytis cinerea” (UNIVERSIDAD DE LA FRONTERA, priority 2013, dated 2018)", "data": [{"test_system": "Botrytis cinerea", "test": "Inhibition of growth of Botrytis cinerea by artificial VOC mixture and pure compounds, bi compartmentalized Petri dishes (vapour exposure)", "type": "cell-based", "settings": "pure compounds at their relative proportion of 0.70 μl/mL mixture (ethanol 0.11, isobutyl acetate 0.14, isoamyl acetate 0.13, α-bisabolol 0.10 μl/mL head space); after four days", "description": "For this, bi compartmentalized Petri dishes (94×16 mm) (Greiner, Germany) coated with culture medium were used, leaving a head space of 60 mL. One compartment was inoculated with mycelium (3 mm radius disk) of the saprophytic fungus (S. commune). The other compartment was inoculated with fresh mycelium of B. cinerea. In this bioassay there was no physical contact between the two fungi. The control treatment consisted of placing the mycelium of B. cinerea in only one of the compartments. All experimental units (Petri dishes) were covered and sealed with Parafilm M®, and incubated at 25° C. in the dark until the growth of any fungi (treatment and control) reached the edge of the central wall of the Petri dish. The mycelial growth was measured using a magnifying glass (Japan Optical), and data were expressed as percent of inhibition relative to control. Each treatment was repeated 10 times.\nThe inhibitory power of pure compounds and of a mixture based on their percent ratio were assessed. The methodology was similar to that detailed above to assess the antifungal activity of saprophytic fungus. The minimum inhibitory concentration (MIC) and lethal dose 50% (LD50) were calculated by interpolation according to the polynomial equation (Y=−194.565812×2+318.001954×−25.561441; r2=0.982) (See FIG. 2).\n6 formulations were tested at laboratory level: […]\nFormulation 2: 0.11 μl ethanol per 1 mL of head space volume (airspace).\nFormulation 3: 0.14 μl of isobutyl acetate per 1 mL of head space volume (airspace).\nFormulation 4: 0.13 μl of isoamyl acetate per 1 mL of head space volume (airspace).\nFormulation 5: 0.10 μl of α-bisabolol per 1 mL of head space volume (airspace).\nThe effect of each formulation for inhibiting the growth of B. cinerea was tested using bi compartmentalized dishes, according to the above methodology.", "values": [{"compound": "CC(=O)OCCC(C)C", "note": "[isoamyl acetate]", "percent of inhibition of Botrytis cinerea growth": "77%"}, {"compound": "CC(=O)OCC(C)C", "note": "[isobutyl acetate]", "percent of inhibition of Botrytis cinerea growth": "47%"}, {"compound": "α-bisabolol", "percent of inhibition of Botrytis cinerea growth": "did not inhibit"}]}]}
